According to BindingDB's records for doi:10.7270/Q2ZC817P (The Scripps Research Institute Molecular Screening Center, 2007):
Where a name gives a salt, the structure may show the parent alone.

biological target: Sphingosine 1-phosphate receptor 1 (Homo sapiens, UniProt P21453); assay: S1P1 agonism potentiation – cell-based, potentiator mode, 60K MLSMR set, dose response (AID 466); conditions: not given
Sequence (P21453 whole entry): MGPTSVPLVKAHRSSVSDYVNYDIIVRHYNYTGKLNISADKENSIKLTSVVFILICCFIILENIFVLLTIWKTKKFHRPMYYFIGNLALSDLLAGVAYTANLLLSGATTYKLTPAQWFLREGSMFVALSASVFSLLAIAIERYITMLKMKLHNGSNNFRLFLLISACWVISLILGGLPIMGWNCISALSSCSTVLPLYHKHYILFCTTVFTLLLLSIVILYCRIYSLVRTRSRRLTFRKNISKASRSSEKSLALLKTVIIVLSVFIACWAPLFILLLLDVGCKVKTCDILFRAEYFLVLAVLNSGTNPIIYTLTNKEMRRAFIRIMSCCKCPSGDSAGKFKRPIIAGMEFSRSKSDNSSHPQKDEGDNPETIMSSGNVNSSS

Q: CCCc1cc(C(=O)Nc2sc3c(c2C#N)CCC3)no1 [MLS000116386] was tested. Which EC50 did it give?
A: > 95 µM

Q: For N#CCCS(=O)(=O)c1nnnn1-c1ccccc1 [3-(1-phenyltetrazol-5-yl)sulfonylpropanenitrile], which EC50 is on record?
A: 3.55 µM

Q: How did the EC50 turn out when Oc1c(Cl)cc(Cl)cc1Sc1cc(Cl)cc(Cl)c1O was run?
A: 1.24 µM

Q: Which EC50 does the source give for CCc1c(C)nc2ncnn2c1NCCc1ccc(OC)cc1 [(6-Ethyl-5-methyl-[1,2,4]triazolo[1,5-a]pyrimidin-7-yl)-[2-(4-methoxy-phenyl)-ethyl]-amine] here?
A: 9.1 µM

Q: For Cc1noc(/C=C/N(C)C)c1S(=O)(=O)N1CCc2ccccc21 [(E)-2-[4-(2,3-dihydroindol-1-ylsulfonyl)-3-methyl-1,2-oxazol-5-yl]-N,N-dimethyl-ethenamine], which EC50 is on record?
A: > 95 µM

Q: With CCCc1ccc(Oc2c[nH]nc2-c2ccc(O)cc2O)cc1 [(4E)-3-hydroxy-4-[4-(4-propylphenoxy)-1,2-dihydropyrazol-3-ylidene]-1-cyclohexa-2,5-dienone] as the molecule, how does the EC50 read?
A: 18.2 µM

Q: Which EC50 does the source give for C=CCN1/C(=N/c2cccnc2)SCC1(O)c1ccc(C)cc1 (stereo not given) [(2E)-3-allyl-4-(4-methylphenyl)-2-(pyridin-3-ylimino)-1,3-thiazolidin-4-ol] here?
A: 7.92 µM

Q: O=C(c1cc(-c2ccc(O)cc2)on1)N1CCc2ccccc2C1 [4-[3-(3,4-dihydro-1H-isoquinolin-2-ylcarbonyl)-2H-1,2-oxazol-5-ylidene]cyclohexa-2,5-dien-1-one] was tested. Which EC50 did it give?
A: 4.07 µM

Q: O=C1C2CCCN2C(c2cccnc2)N1c1cccc(Cl)c1 (stereo not given) [2-(3-chlorophenyl)-3-(3-pyridinyl)-5,6,7,7a-tetrahydro-3H-pyrrolo[1,2-c]imidazol-1-one] was tested. Which EC50 did it give?
A: > 95 µM

Q: With CCCCn1ccnc1C(=O)c1cccc(S(=O)(=O)N2c3ccccc3CC2C)c1 (stereo not given) [(1-butyl-2-imidazolyl)-[3-[(2-methyl-2,3-dihydroindol-1-yl)sulfonyl]phenyl]methanone] as the molecule, how does the EC50 read?
A: 9.16 µM

Q: Which EC50 does the source give for Nc1nonc1C(=O)NCCNCc1cc(Br)ccc1OCc1ccc(F)cc1 [4-amino-N-[2-[[5-bromo-2-(4-fluorobenzyl)oxy-benzyl]amino]ethyl]furazan-3-carboxamide;hydrochloride] here?
A: 7.81 µM

Q: For COc1ccccc1-n1nnnc1S(=O)(=O)Cc1ccc(Cl)cc1 [5-(4-chlorobenzyl)sulfonyl-1-(2-methoxyphenyl)tetrazole], which EC50 is on record?
A: 3.77 µM

Q: Cc1nn(-c2nc3ccccc3s2)c(N)c1-c1ccccc1 [1-(1,3-benzothiazol-2-yl)-3-methyl-4-phenyl-1H-pyrazol-5-amine] was tested. Which EC50 did it give?
A: 0.385 µM

Q: With Cc1cc(C(=O)CSc2nc3ccccc3c(=O)n2C)c(C)n1Cc1ccc2c(c1)OCO2 [2-[2-[1-(1,3-benzodioxol-5-ylmethyl)-2,5-dimethyl-pyrrol-3-yl]-2-oxidanylidene-ethyl]sulfanyl-3-methyl-quinazolin-4-one] as the molecule, how does the EC50 read?
A: 5.57 µM

Q: For O=C(CSc1nnc(Cc2csc(Nc3cccc(Cl)c3)n2)o1)N1CCc2ccccc21 [2-[[5-[[2-(3-chloroanilino)-1,3-thiazol-4-yl]methyl]-1,3,4-oxadiazol-2-yl]sulfanyl]-1-(2,3-dihydroindol-1-yl)ethanone], which EC50 is on record?
A: > 95 µM

Q: Which EC50 does the source give for O=C(CSC1=NCCS1)Nc1ccnc2ccccc12 [2-(4,5-dihydro-1,3-thiazol-2-ylsulfanyl)-N-quinolin-4-yl-ethanamide] here?
A: 2.55 µM

Q: C=CS(=O)(=O)c1ccc(Oc2ccc(S(=O)(=O)C=C)cc2)cc1 [1-ethenylsulfonyl-4-(4-ethenylsulfonylphenoxy)benzene] was tested. Which EC50 did it give?
A: 3.31 µM

Q: Which EC50 does the source give for CCOc1ccc(-c2nc(-c3ccccc3)no2)cc1OCC [5-(3,4-diethoxyphenyl)-3-phenyl-1,2,4-oxadiazole] here?
A: 0.107 µM

Q: Cc1ccc(-n2ncc3c(N4CCCC(C)C4)ncnc32)c(C)c1 (stereo not given) [1-(2,4-dimethylphenyl)-4-(3-methylpiperidin-1-yl)-1H-pyrazolo[3,4-d]pyrimidine] was tested. Which EC50 did it give?
A: 8.81 µM

Q: COc1ccc(-c2nc(-c3ccc(NC(=O)c4ccncc4)cc3)no2)cc1OC [MLS000115086] was tested. Which EC50 did it give?
A: 0.685 µM

Q: Which EC50 does the source give for Cn1c(=O)oc2cc(S(=O)(=O)N3CCCC(C(=O)N4CC=C(c5ccccc5)CC4)C3)ccc21 (stereo not given) [3-methyl-6-[3-(4-phenyl-3,6-dihydro-2H-pyridine-1-carbonyl)piperidin-1-yl]sulfonyl-1,3-benzoxazol-2-one] here?
A: 9.49 µM

Q: With Oc1ccc(C2NCc3ccccc3-n3cccc32)cc1Cl (stereo not given) [2-chloranyl-4-(5,6-dihydro-4H-pyrrolo[1,2-a][1,4]benzodiazepin-4-yl)phenol;hydrochloride] as the molecule, how does the EC50 read?
A: 2.83 µM

Q: Which EC50 does the source give for O=S(=O)(C/C(=C/CO)S(=O)(=O)c1ccccc1)c1ccccc1 [(Z)-3,4-bis(benzenesulfonyl)but-2-en-1-ol] here?
A: 8.68 µM

Q: Which EC50 does the source give for c1ccc2c(c1)oc1c(NCc3ccc4c(c3)OCO4)ncnc12 [MLS000057790] here?
A: 6.46 µM

Q: Which EC50 does the source give for O=S1(=O)C=C(Sc2nc3cc(Cl)ccc3o2)c2ccccc21 [SMR000019512] here?
A: > 30 µM

Q: With c1ccc(C(Cc2nc(-c3cccnc3)no2)c2ccccc2)cc1 [5-(2,2-diphenylethyl)-3-(3-pyridinyl)-1,2,4-oxadiazole] as the molecule, how does the EC50 read?
A: 2.66 µM

Q: COc1cccc(N2CCN(c3ncnc4c3[nH]c3ccccc34)CC2C)c1 (stereo not given) [4-[4-(3-methoxyphenyl)-3-methyl-1-piperazinyl]-5H-pyrimido[5,4-b]indole] was tested. Which EC50 did it give?
A: 3.57 µM

Q: Which EC50 does the source give for CCCN(C(=O)c1cccs1)c1nnc(-c2ccncc2)s1 [MLS000074637] here?
A: 2.96 µM

Q: Which EC50 does the source give for COc1ccc(-c2noc(-c3ccccc3F)n2)cc1 [5-(2-fluorophenyl)-3-(4-methoxyphenyl)-1,2,4-oxadiazole] here?
A: 6.17 µM

Q: With CCc1ccc(-c2nc(-c3ccncc3)no2)cc1 [5-(4-ethylphenyl)-3-(4-pyridyl)-1,2,4-oxadiazole] as the molecule, how does the EC50 read?
A: 4.41 µM

Q: For Cc1cccc(NC(=O)Nc2ccc(C#N)cc2)n1 [1-(4-cyanophenyl)-3-(6-methyl-2-pyridinyl)urea], which EC50 is on record?
A: > 30 µM

Q: Cc1nc2sccn2c1-c1csc(NCc2ccccc2)n1 [4-(6-methyl-5-imidazo[2,1-b]thiazolyl)-N-(phenylmethyl)-2-thiazolamine] was tested. Which EC50 did it give?
A: 3.6 µM

Q: For Cc1nnc(SCC(=O)N2CCC(c3noc4ccc(F)cc34)CC2)s1 [1-[4-(5-fluoranyl-1,2-benzoxazol-3-yl)piperidin-1-yl]-2-[(5-methyl-1,3,4-thiadiazol-2-yl)sulfanyl]ethanone], which EC50 is on record?
A: 8.2 µM

Q: With COc1ccc(-n2c(O)cc(Sc3nnc[nH]3)c2O)c(OC)c1 [1-(2,4-dimethoxyphenyl)-3-(1H-1,2,4-triazol-5-ylthio)pyrrolidine-2,5-dione] as the molecule, how does the EC50 read?
A: 16.4 µM

Q: Which EC50 does the source give for CCc1cc(-c2n[nH]cc2-c2ccc3c(c2)OCO3)c(O)cc1O [SMR000060132] here?
A: 6.57 µM

Q: CCCc1ccc(Oc2c[nH]nc2-c2ccc(O)c(C)c2O)cc1 [SMR000024172] was tested. Which EC50 did it give?
A: 14.9 µM

same assay, conditions: inactive by the depositor's call

Q: CCSc1nc(N2CCOCC2)c2c(c1C#N)CCCC2 [3-(ethylthio)-1-(4-morpholinyl)-5,6,7,8-tetrahydroisoquinoline-4-carbonitrile] was tested. Which EC50 did it give?
A: 30.9 µM

Q: COc1ccc(S(=O)(=O)Cc2ccc(C(=O)N3CCN(c4ccc(Cl)cc4)CC3)o2)cc1 [MLS000120227] was tested. Which EC50 did it give?
A: 14.7 µM

Q: Which EC50 does the source give for O=C1CC(N2CCN(C/C=C/c3ccccc3)CC2)C(=O)N1CCc1ccccc1 (stereo not given) [1-(2-phenylethyl)-3-[4-[(E)-3-phenylprop-2-enyl]-1-piperazinyl]pyrrolidine-2,5-dione] here?
A: 19.3 µM

Q: Cc1ccc(C(=O)c2cncc(Br)c2)cc1 [(5-bromanylpyridin-3-yl)-(4-methylphenyl)methanone] was tested. Which EC50 did it give?
A: 12.6 µM

Q: Which EC50 does the source give for O=C(Nc1ccc(C(F)(F)F)cc1)C1CCCN1S(=O)(=O)c1cccc2cccnc12 (stereo not given) [1-(8-quinolinylsulfonyl)-N-[4-(trifluoromethyl)phenyl]-2-pyrrolidinecarboxamide] here?
A: 10.2 µM

Q: With CCN(CC)S(=O)(=O)c1cccc(S(=O)(=O)c2cccc(S(=O)(=O)N(CC)CC)c2)c1 [3-[3-(diethylsulfamoyl)phenyl]sulfonyl-N,N-diethyl-benzenesulfonamide] as the molecule, how does the EC50 read?
A: 23.4 µM

Q: Which EC50 does the source give for CC(=O)Nc1ccc(S(=O)(=O)N2CCN(CCCOc3cc(C)ccc3C)CC2)cc1 [MLS000050317] here?
A: 17.5 µM

Q: CCC(C)c1ccc2oc(-c3ccc(NC(=O)c4nnc[nH]4)cc3)nc2c1 (stereo not given) [N-[4-(5-sec-butyl-1,3-benzoxazol-2-yl)phenyl]-1H-1,2,4-triazole-3-carboxamide] was tested. Which EC50 did it give?
A: 12.7 µM

Q: Which EC50 does the source give for COC(=O)c1ccc(CSc2nc3ccccc3c(=O)n2Cc2ccco2)o1 [5-[[[3-(2-furanylmethyl)-4-oxo-2-quinazolinyl]thio]methyl]-2-furancarboxylic acid methyl ester] here?
A: 40.4 µM

Q: How did the EC50 turn out when COc1cccc(-c2nc(-c3ccc(NC(=O)c4cccnc4)cc3)no2)c1 [MLS000047254] was run?
A: 22.1 µM

Q: Which EC50 does the source give for CCN(CC)c1ccc(-n2c(C)c(C(C)=O)c(C(C)=O)c2C)cc1 [1-[1-[4-(diethylamino)phenyl]-4-ethanoyl-2,5-dimethyl-pyrrol-3-yl]ethanone] here?
A: 10.4 µM

Q: How did the EC50 turn out when COc1ccccc1-n1nnnc1SCc1cc2c(cc1Br)OCO2 [5-[(6-bromanyl-1,3-benzodioxol-5-yl)methylsulfanyl]-1-(2-methoxyphenyl)-1,2,3,4-tetrazole] was run?
A: 36.2 µM

Q: Which EC50 does the source give for CN1CCN(C(=O)CSc2nc(-c3cccs3)cc(-c3cccs3)c2C#N)CC1 [2-[2-(4-methylpiperazin-1-yl)-2-oxidanylidene-ethyl]sulfanyl-4,6-dithiophen-2-yl-pyridine-3-carbonitrile] here?
A: 12.9 µM

Q: How did the EC50 turn out when COc1ccc2c(c1)-c1nc(NC(=O)c3cccs3)sc1CC2 [N-(8-methoxy-4,5-dihydrobenzo[e][1,3]benzothiazol-2-yl)-2-thiophenecarboxamide] was run?
A: 20.5 µM

Q: How did the EC50 turn out when COc1ccc(-c2nc(-c3cccc(C(F)(F)F)c3)no2)cc1OC [5-(3,4-dimethoxyphenyl)-3-[3-(trifluoromethyl)phenyl]-1,2,4-oxadiazole] was run?
A: 18.8 µM

Q: How did the EC50 turn out when O=c1oc2cc(Br)ccc2n1CSC1=NCCS1 [6-Bromo-3-(4,5-dihydro-thiazol-2-ylsulfanylmethyl)-3H-benzooxazol-2-one] was run?
A: 17.6 µM

Q: With CC/N=c1\sc(C(=O)NCCc2ccccc2)cc(=O)n1CC [3-Ethyl-2-[(Z)-ethylimino]-4-oxo-3,4-dihydro-2H-[1,3]thiazine-6-carboxylic acid phenethyl-amide] as the molecule, how does the EC50 read?
A: 23.1 µM

Q: With Cc1ccc(S(=O)(=O)n2nc(C)c(Br)c2C)c(C)c1C [4-bromanyl-3,5-dimethyl-1-(2,3,4-trimethylphenyl)sulfonyl-pyrazole] as the molecule, how does the EC50 read?
A: 83.1 µM

Q: Which EC50 does the source give for C=CCn1c(SCC(=O)c2cccs2)nc2sc(CC)cc2c1=O [3-allyl-6-ethyl-2-[[2-keto-2-(2-thienyl)ethyl]thio]thieno[2,3-d]pyrimidin-4-one] here?
A: 38.8 µM
